In brackets after ≈: the same amount, converted by molar mass.

Series [1] is described as follows: Anticancer activity against human A875 cells assessed as inhibition of cell growth incubated for 24 hrs by MTT assay. Particulars: A875, 24 h. In kind it is functional, cell-based. Background: Formazan colour is commonly taken as a measure of viable cells.
Series [2] deals with HepG2. In words: Anticancer activity against human HepG2 cells assessed as inhibition of cell growth incubated for 24 hrs by MTT assay. In kind it is functional, cell-based. The note with it: HepG2, 24 h.
Series [3] in a line: Cytotoxicity against human L02 cells assessed as inhibition of cell growth incubated for 24 hrs by MTT assay. In kind it is toxicity, cell-based.
The nature of series [4]: Antitubulin activity against bovine brain tubulin polymerization preincubated with compound followed by GTP addition by turbidimetry-based spectrophotometric method. Also noted: species or system Bos taurus.
Series [5] relates to HeLa. In words: cells. The note with it: Homo sapiens, 24 h.
In a further series the test system is SW872. In words: Anticancer activity against human SW872 cells assessed as inhibition of cell growth incubated for 72 hrs by MTT assay. Particulars: SW872, 72 h. In kind it is functional, cell-based.
Series [6] can be described thus: Anticancer activity against human A875 cells assessed as inhibition of cell growth incubated for 72 hrs by MTT assay. In kind it is functional, cell-based. Particulars: A875, 72 h.
The subject of series [7] is A549. In words: Anticancer activity against human A549 cells assessed as inhibition of cell growth incubated for 72 hrs by MTT assay. In kind it is functional, cell-based. Particulars: A549, 72 h.
In series [8] the test system is HeLa. In words: Antiproliferative activity against human HeLa cells assessed as inhibition of cell proliferation incubated for 20 hrs by MTT assay. In kind it is functional, cell-based.
The test system of series [9] is HepG2. In words: Antiproliferative activity against human HepG2 cells assessed as inhibition of cell proliferation incubated for 20 hrs by MTT assay. In kind it is functional, cell-based. The note with it: HepG2, 20 h.
Series [10] has as its system MCF7. In words: Antiproliferative activity against human MCF7 cells assessed as inhibition of cell proliferation incubated for 20 hrs by MTT assay. It is filed as functional, cell-based. Particulars: MCF7, 20 h.
A short description of series [11]: Antiproliferative activity against human BGC cells assessed as inhibition of cell proliferation incubated for 20 hrs by MTT assay. In kind it is functional, cell-based.
Series [12] has as its system A549. In words: Antiproliferative activity against human A549 cells assessed as inhibition of cell proliferation incubated for 20 hrs by MTT assay. It is filed as functional, cell-based. Particulars: A549, 20 h.
The test system of the next series is L02. In words: Antiproliferative activity against human L02 cells assessed as inhibition of cell proliferation incubated for 20 hrs by MTT assay. In kind it is functional, cell-based. The note with it: L02, 20 h.
For another series, the system named is U-87 MG. In words: Anticancer activity against human U87 cells incubated for 48 hrs by MTT assay. It is filed as functional, cell-based, U-87MG ATCC.
For the next series, the system named is SMMC-7721. In words: Anticancer activity against human SMMC-7721 cells incubated for 48 hrs by MTT assay. Particulars: SMMC-7721, 48 h. It is filed as functional, cell-based.
Another series concerns SGC-7901. In words: Anticancer activity against human SGC-7901 cells incubated for 48 hrs by MTT assay. It is filed as functional, cell-based. The note with it: SGC-7901, 48 h, read-out: IC50.
The next series relates to MGC-803. In words: Anticancer activity against human MGC-803 cells incubated for 48 hrs by MTT assay. It is filed as functional, cell-based. The note with it: MGC-803, 48 h.
Series [13] is described as follows: Cytotoxicity against human L02 cells incubated for 48 hrs by MTT assay. In kind it is toxicity, cell-based.
Series [14] deals with A549. In words: Antiproliferative activity against human A549 cells assessed as reduction in cell viability incubated for 24 hrs by MTT assay. Particulars: A549, 24 h. It is filed as functional, cell-based.
The subject of series [15] is HeLa. In words: Antiproliferative activity against human HeLa cells assessed as reduction in cell viability incubated for 24 hrs by MTT assay. In kind it is functional, cell-based.
In series [16] the test system is HepG2. In words: Antiproliferative activity against human HepG2 cells assessed as reduction in cell viability incubated for 24 hrs by MTT assay. In kind it is functional, cell-based. The note with it: HepG2, 24 h.
Series [17] in a line: Cytotoxicity against human L02 cells assessed as reduction in cell viability incubated for 24 hrs by MTT assay. It is filed as toxicity, cell-based.
The next series relates to L1210. In words: Anticancer activity against mouse L1210 cells. Particulars: read-out: ED50 (the source's name). It is filed as functional.
For series [18], the system named is A549. In words: Anticancer activity against human A549 cells. In kind it is functional. The note with it: read-out: ED50 (the source's name).
The next series deals with Sarcoma-180. In words: Antitumor activity against mouse Sarcoma-180 cells xenografted in ip dosed ICR mouse assessed as tumor growth inhibition rate administered daily for 7 days relative to control. In kind it is functional. Particulars: time 7 day.
Series [19] has as its system MCF7. In words: Antiproliferative activity against human MCF7 cells assessed as inhibition of cell growth incubated for 24 hrs in presence of foetal bovine serum by MTT assay. It is filed as functional, cell-based. Particulars: MCF7, 24 h.
For series [20], the system named is A549. In words: Antiproliferative activity against human A549 cells assessed as inhibition of cell growth incubated for 24 hrs in presence of foetal bovine serum by MTT assay. It is filed as functional, cell-based. The note with it: A549, 24 h.
The nature of series [21]: Cytotoxicity against human L02 cells assessed as inhibition of cell growth incubated for 24 hrs in presence of foetal bovine serum by MTT assay. It is filed as toxicity, cell-based.
The nature of series [22]: Cytotoxicity against human HEK293T cells assessed as inhibition of cell growth incubated for 24 hrs in presence of foetal bovine serum by MTT assay. In kind it is toxicity, cell-based, HEK-293T.
Series [23] concerns Ca9-22. In words: Cytotoxicity against human Ca9-22 cells assessed as reduction in cell viability incubated for 24 hrs by MTT assay. In kind it is functional, cell-based. The note with it: Ca9-22, 24 h.
The test system of series [24] is Ca9-22. In words: Cytotoxicity against human Ca9-22 cells assessed as reduction in cell viability incubated for 48 hrs by MTT assay. In kind it is functional, cell-based. The note with it: Ca9-22, 48 h.

Consider `CC(C)=CC[C@@H](OC(=O)CCCOc1ccc(Cl)cc1C)C1=CC(=O)c2c(O)ccc(O)c2C1=O`, for which the IC50 (in general, the point on the concentration scale where inhibition reaches its midpoint) came to 1520 nM in series [1], 430 nM in the series on HepG2 [2], 16900 nM in series [4] and 4440 nM with HeLa [5]. The IC50 at 24 h in [3] is above 100000 nM.

Consider `CC(C)=CC[C@@H](OC(=O)Cc1ccc(Oc2ccccc2)cc1)C1=CC(=O)c2c(O)ccc(O)c2C1=O`, for which the IC50 amounted to 1240 nM in series [1], 426 nM in the series on HepG2 [2], 4310 nM in series [4] and 4310 nM in the series with HeLa [5]. Also, in [3], the IC50 at 24 h was above 100000 nM.

Turning to `CC(C)=CC[C@@H](OC(=O)/C=C/c1cccc(C(F)(F)F)c1)C1=CC(=O)c2c(O)ccc(O)c2C1=O`, the values for the IC50 (in the series with SW872; in series [6]; in the series on A549 [7]) were 690 nM, 650 nM and 1620 nM, respectively.

As for `CC(C)=CC[C@@H](OC(=O)C(Cc1ccccc1)N1C(=O)c2ccccc2C1=O)C1=CC(=O)c2c(O)ccc(O)c2C1=O` (stereo partly drawn), the IC50 with HeLa [8] was 2920 nM; with HepG2 [9] it was 1690 nM; in the series with MCF7 [10], 3050 nM; in series [11], above 100000 nM; in the series on A549 [12], above 100000 nM; in the series on L02, above 100000 nM.

For `CC(C)=CC[C@@H](OC(=O)/C=C/c1ccc(F)c(F)c1)C1=CC(=O)c2c(O)ccc(O)c2C1=O`, the IC50 in the series with SW872 came out at 360 nM; in series [6], 550 nM; with A549 [7], 2100 nM.

For the compound `CC(C)=CC[C@@H](OC(=O)[C@@H](Cc1ccccc1)N1C(=O)C2C3C=CC(C3)C2C1=O)C1=CC(=O)c2c(O)ccc(O)c2C1=O` (stereo partly drawn), the IC50 in the series with HeLa [8] was 1260 nM; in the series with HepG2 [9] it was 1920 nM; in the series on MCF7 [10], 3550 nM; in [11], 11600 nM; in the series on A549 [12], above 100000 nM; in the series on L02, above 100000 nM.

Turning to `CC(C)=CC[C@@H](OC(=O)CCC(=O)Nc1ccc(Oc2ccccc2)cc1)C1=CC(=O)c2c(O)ccc(O)c2C1=O`, the IC50 in the series with U-87 MG was found to be 3800 nM; in the series on SMMC-7721, 20600 nM; in the series on SGC-7901 it was 4100 nM; in the series with MGC-803, 4100 nM. The IC50 at 48 h in series [13] was above 50000 nM.

For `CC(C)=CC[C@@H](OC(=O)C1CC1)C1=CC(=O)c2c(O)ccc(O)c2C1=O`, the IC50 in the series on A549 [14] is 3730 nM; with HeLa [15], 3470 nM; with HepG2 [16], 759 nM. In addition, the IC50 at 24 h in series [17] is above 100000 nM.

Take `CCCO/N=C/c1cc(O)c2c(c1O)C(=O)C=CC2=O`: the EC50 is 0.107 µg/mL (≈ 0.389 µM) with L1210 and above 10 µg/mL with A549 [18]. For the same compound, in the series with Sarcoma-180, the T/C (in general, the ratio of treated to control) is reported as 229%.

`CC(C)=CC[C@@H](OC(=O)[C@@H](C)N1C(=O)c2ccccc2C1=O)C1=CC(=O)c2c(O)ccc(O)c2C1=O`: the IC50 was 1930 nM with HeLa [8]; 5350 nM in the series on HepG2 [9]; 2550 nM in the series with MCF7 [10]; 13300 nM in series [11]; above 100000 nM in the series on A549 [12]; above 100000 nM with L02.

Turning to `CO/N=C/c1cc(O)c2c(c1O)C(=O)C=CC2=O`, the results for the EC50 with L1210 and in the series on A549 [18] were 0.109 µg/mL (≈ 0.441 µM) and above 10 µg/mL, respectively. In addition, the T/C in the series with Sarcoma-180 was 318%.

As for `COc1cc2c(c(OC)c1OC)-c1ccc(OC)c(=O)cc1[C@@H](NC(C)=O)CC2` [COLCHICINE], the IC50 is 750 nM in [1]; 4650 nM with HepG2 [2]; 220 nM in the series on MCF7 [19]; 470 nM with A549 [20]; 17800 nM with HeLa [5]. The IC50 at 24 h in [21] stood at 2300 nM; in series [22] it was 1030 nM.

For `CC(C)=CC[C@@H](OC(=O)C(C)C)C1=CC(=O)c2c(O)ccc(O)c2C1=O` [ISOBUTYLSHIKONIN], the figures for the IC50 with Ca9-22 [23] and with Ca9-22 [24] were 1980 nM and 1800 nM, respectively.

The record behind these values is ChEMBL document CHEMBL5137008, “Recent advances of antitumor shikonin/alkannin derivatives: A comprehensive overview focusing on structural classification, synthetic approaches, and mechanisms of action” (Eur J Med Chem, 2022).
